Assays:
[1] = test system: ERK substrate (RSK) phosphorylation in HCT116 colorectal cancer cell line; assay: ERK1/2 cell mechanistic assay (pRSK1 Alphascreen assay); format: cell-based; settings: Homo sapiens, HCT-116, 2 h; HCT116 cells, two hours, Rel IC50; read-out: pRSK1 inhibition IC50
Procedure: The purpose of this assay is to measure the ability of compounds to inhibit ERK signaling in cancer cells in vitro. Carry out the pRSK1 Alphascreen assay using the HCT116 colorectal cancer cell line (ATCC, # CCL-247). Routinely culture HCT116 cells in Dulbecco's Modified Eagle's Medium (DMEM) (Hyclone, #SH30022) growth medium containing 5% Fetal Bovine Serum (FBS) (Gibco, #16000-044) in T-150 flasks and incubate in a 5% CO2 incubator at 37° C. Harvest cells when they become confluent and freeze in freezing medium at 1×10e^7 cells/mL as “assay ready frozen cells” and store in liquid nitrogen. To run the assay, plate 40,000 HCT116 cells/well in a 96-well tissue culture plate and incubate at 37° C. in a 5% CO2 incubator overnight. Test compounds at 10 concentrations starting at a 20 μM top concentration and utilize a 1:3 dilution scheme (20 μM to 0.001 μM) with a final DMSO concentration of 0.5% (v/v). Add compounds in 20 μL serum free growth medium and incubate at 37° C. for two hours. Remove growth medium and add 50 μL of 1× lysis buffer [Cell Signaling Technology, #9803] containing 1×holt protease and phosphatase inhibitor cocktail [Thermo, #78441] to each well and incubate at room temperature for 10 minutes on a shaker. […] Measure the fluorescence intensity in each well by reading the plates in ENVISION® (PerkinElmer) plate reader. […]

[2] = test system: RSK1 phosphorylation in HCT116 tumor xenograft; assay: In vivo target inhibition (IVTI) assay (pRSK1 ELISA), HCT116 xenograft; set-up: species or system female athymic nude mice; settings: oral
Procedure: The purpose of this assay is to measure the ability of a test compound to inhibit ERK1/2 substrate phosphorylation in an animal model. Implant female athymic nude mice (22-25 g) from Harlan Laboratories with 5×10e^6 HCT116 colorectal cancer cells (ATCC, # CCL-247) subcutaneously in the right flank region in 200 μL of 1:1 Hank's Balanced Salt Solution (HBSS)+Matrigel solution. Measure tumor growth and body weight twice per week beginning the seventh day after the implantation. When tumor sizes reach 300-500 mm^3, randomize animals and group into groups of five animals. […]
Pulverize tumors in liquid nitrogen and lyse in 1× lysis buffer (MSD, #R60TX-3) containing 1× halt protease & phosphatase inhibitor cocktail (Thermo Scientific, #0861281), 1 mM phenylmethanesulfonyl fluoride (PMSF) (Sigma, #93482-50ML-F) and 1 μM sodium metavanadate (Sigma, #590088) using Matrix D beads (MP Biomedical, #6913-500) in a FastPrep-24™ Cell Disrupter machine (MP Biomedical) in a cold room (4° C.). […] Cool plate to room temperature and measure the absorbance at or near 562 nm on a plate reader (Envision plate reader from Perkin Elmer). Subtract the average 562 nm absorbance measurement of the blank standard replicates from the 562 nm measurements of all other individual standard and unknown (cell or tumor lysate) sample replicates. […]

**Q.** What does the source list for COCCN1C(=O)c2cc(-c3ccnc(Nc4ccnn4C)c3)sc2C1(C)C [Example 1, 5-(2-Methoxyethyl)-6,6-dimethyl-2-{2-[(1-methyl-1H-pyrazol-5-yl)amino]pyridin-4-yl}-5,6-dihydro-4H-thieno[2,3-c]pyrrol-4-one]?
**A.** IC50 [1]: 261 nM; TED50 (pRSK1 inhibition in tumor) [2]: 12 mg/kg

Source: patent US9879029B2, “ERK inhibitors” (Eli Lilly and Company, priority 2014, dated 2018)
